Source: EPA's ToxRefDB 2

Tests used:
dog [1] = settings: Subchronic oral toxicity in nonrodent, beagle, Feed, dose end: 90 day, group: systemic, systemic / hematology / methemoglobin / methemoglobin
rabbit = settings: Prenatal developmental toxicity study, chinchilla, Oral, Gavage/Intubation, dose end: 27 GD
rat [2] = settings: Combined chronic toxicity/carcinogenicity, wistar, Oral, Feed, dose end: 106 week, group: systemic
dog [3] = settings: Chronic toxicity, beagle, Oral, Feed, dose end: 52 week, group: systemic
rat [4] = settings: Subchronic oral toxicity in rodents, wistar, Feed, dose end: 13 week
rat [5] = settings: Multigenerational reproductive toxicity study, other, Oral, Feed, dose end: 2 generation
rat [6] = settings: Prenatal developmental toxicity study, wistar, Oral, Gavage/Intubation, dose end: 15 GD
mouse [7] = settings: Carcinogenicity, other, Oral, [Not Specified], dose end: 104 week, group: systemic
rat [8] = settings: Combined chronic toxicity/carcinogenicity, sprague dawley, Oral, Feed, dose end: 104 week
dog [9] = settings: Chronic toxicity, beagle, Oral, Feed, dose end: 80 day, group: systemic
rat [10] = settings: Prenatal developmental toxicity study, wistar, Oral, Gavage/Intubation, dose end: 15 GD; remark: listed apart in the source
rat [11] = settings: Subchronic oral toxicity in rodents, wistar, Feed, dose end: 13 week, group: systemic
rat [12] = settings: Combined chronic toxicity/carcinogenicity, other, Oral, Feed, dose end: 104 week, group: systemic
rat [13] = settings: Subchronic oral toxicity in rodents, sprague dawley, Feed, dose end: 90 day, group: systemic
mouse [14] = settings: Carcinogenicity, cd1, Oral, Feed, dose end: 78 week, group: systemic
rat [15] = settings: Multigenerational reproductive toxicity study, sprague dawley, Oral, Feed, dose end: 2 generation
[16] = group: developmental, systemic / in life observation / body weight / fetal weight + developmental / developmental malformation / bone / unossified
[17] = group: maternal, systemic / in life observation / body weight / body weight gain + systemic / in life observation / food consumption / food consumption + …
[18] = systemic / hematology / anemia / anemia - hemolytic + systemic / hematology / erythrocyte (rbc) count differential / erythrocyte (rbc) + …
[19] = systemic / pathology microscopic / thyroid gland / hyperplasia
[20] = systemic / hematology / methemoglobin / methemoglobin
[21] = systemic / hematology / methemoglobin / methemoglobin + systemic / clinical chemistry / triiodothyronine (t3) / triiodothyronine (t3), total
[22] = group: cholinesterase, cholinesterase / cholinesterase / cholinesterase / brain cholinesterase (che) + cholinesterase / cholinesterase / cholinesterase / …
[23] = group: systemic, systemic / hematology / anemia / anemia - macrocytic + systemic / hematology / erythrocyte (rbc) count differential / erythrocyte (rbc) + …
[24] = group: offspring, systemic / organ weight / kidney / relative to body weight + systemic / organ weight / liver / relative to body weight
[25] = group: parental, systemic / organ weight / spleen / absolute + systemic / organ weight / spleen / relative to body weight + systemic / hematology / anemia / …
[26] = group: parental, systemic / organ weight / spleen / absolute + systemic / organ weight / spleen / relative to body weight + systemic / in life observation / …
[27] = group: reproductive, reproductive / offspring survival early / litter size / litter size
[28] = group: developmental, developmental / developmental malformation / bone / absent + developmental / developmental malformation / bone / bipartite ossification + …
[29] = group: maternal, systemic / in life observation / body weight / body weight gain + systemic / in life observation / food consumption / food consumption
[30] = systemic / hematology / anemia / anemia - heinz body + systemic / in life observation / body weight / body weight
[31] = group: cholinesterase, cholinesterase / cholinesterase / cholinesterase / brain cholinesterase (che)
[32] = group: cholinesterase, cholinesterase / cholinesterase / cholinesterase / erythrocyte cholinesterase (che) + cholinesterase / cholinesterase / cholinesterase / …
[33] = group: systemic, systemic / hematology / erythrocyte (rbc) count differential / erythrocyte (rbc) + systemic / hematology / hematocrit (hct) / hematocrit (…
[34] = systemic / hematology / methemoglobin / methemoglobin + systemic / urinalysis / appearance and color / appearance and color
[35] = group: developmental, developmental / developmental malformation / bone / incomplete ossification + developmental / developmental malformation / bone / unossified…
[36] = group: maternal, systemic / hematology / methemoglobin / methemoglobin
[37] = group: maternal, systemic / hematology / methemoglobin / methemoglobin + systemic / hematology / heinz body / heinz body + systemic / in life observation / …
[38] = systemic / clinical chemistry / thyroxine (t4) / thyroxine (t4), total + systemic / hematology / methemoglobin / methemoglobin + systemic / …
[39] = systemic / pathology microscopic / liver / vacuolization
[40] = systemic / pathology microscopic / liver / vacuolization + systemic / pathology microscopic / liver / hyperplasia + systemic / pathology …
[41] = systemic / clinical chemistry / alanine aminotransferase (alt/sgpt) / alanine aminotransferase (alt/sgpt) + systemic / clinical chemistry / …
[42] = systemic / pathology microscopic / liver / hypertrophy + systemic / pathology microscopic / liver / necrosis
[43] = systemic / pathology microscopic / liver / hypertrophy + systemic / pathology microscopic / liver / necrosis + systemic / pathology …
[44] = group: offspring, systemic / in life observation / body weight / offspring (pup) weight + systemic / in life observation / body weight / offspring (pup) …
[45] = group: parental, systemic / in life observation / body weight / body weight + systemic / in life observation / body weight / body weight gain + systemic / …

`CCOC(=O)Nc1cccc(OC(=O)Nc2ccccc2)c1` [Desmedipham] was tested, and the LEL (dog [1]) was 4.97 mg/kg/day, the LOAEL (dog [1]) was 4.97 mg/kg/day and the NEL (dog [1]) was 0.17 mg/kg/day. It also gave an NOAEL (dog [1]) of 0.17 mg/kg/day, an LEL (rabbit; [16]) of 450 mg/kg/day and an LOAEL (rabbit; [16]) of 450 mg/kg/day. The NEL (rabbit; [16]) was 150 mg/kg/day, the NOAEL (rabbit; [16]) was 150 mg/kg/day and the LOAEL (rabbit; group: maternal, systemic / in life observation / body weight / body weight gain) was 450 mg/kg/day. For the same compound, the LEL (rabbit; [17]) was 450 mg/kg/day, the NEL (rabbit; [17]) was 150 mg/kg/day and the NOAEL (rabbit; [17]) was 150 mg/kg/day. It also gave an LOAEL (rat [2]; [18]) of 16.1 mg/kg/day, an NOAEL (rat [2]; [18]) of 3.3 mg/kg/day and an LEL (rat [2]; [19]) of 3.18 mg/kg/day. The NEL (rat [2]; [19]) was under 3.18 mg/kg/day, the LOAEL (dog [3]; [20]) was 9.6 mg/kg/day and the NOAEL (dog [3]; [20]) was under 9.6 mg/kg/day. For the same compound, the LEL (dog [3]; [21]) was 9.6 mg/kg/day, the NEL (dog [3]; [21]) was under 9.6 mg/kg/day and the LEL (rat [4]; [22]) was 15 mg/kg/day. It also gave an LOAEL (rat [4]; [22]) of 15 mg/kg/day, an NEL (rat [4]; [22]) of under 15 mg/kg/day and an NOAEL (rat [4]; [22]) of under 15 mg/kg/day. For the same compound, the LEL (rat [4]; [23]) was 15 mg/kg/day, the LOAEL (rat [4]; [23]) was 15 mg/kg/day and the NEL (rat [4]; [23]) was under 15 mg/kg/day. The NOAEL (rat [4]; [23]) was under 15 mg/kg/day, the LOAEL (rat [5]; group: offspring, systemic / in life observation / body weight / offspring (pup) weight) was 110 mg/kg/day and the NOAEL (rat [5]; group: offspring, systemic / in life observation / body weight / offspring (pup) weight + systemic / organ weight / heart / absolute + systemic / organ weight…) was 20 mg/kg/day. It also gave an LEL (rat [5]; [24]) of 4 mg/kg/day, an NEL (rat [5]; [24]) of under 4 mg/kg/day and an LEL (rat [5]; [25]) of 20 mg/kg/day. The LOAEL (rat [5]; [25]) was 20 mg/kg/day, the NEL (rat [5]; [26]) was 4 mg/kg/day and the NOAEL (rat [5]; [26]) was 4 mg/kg/day. It also gave an LEL (rat [5]; [27]) of 110 mg/kg/day, an LOAEL (rat [5]; [27]) of over 110 mg/kg/day and an NEL (rat [5]; [27]) of 20 mg/kg/day. The NOAEL (rat [5]; [27]) was at least 110 mg/kg/day, the LEL (rat [6]; [28]) was 1000 mg/kg/day and the LOAEL (rat [6]; [28]) was 1000 mg/kg/day. The NEL (rat [6]; [28]) was 100 mg/kg/day, the NOAEL (rat [6]; [28]) was 100 mg/kg/day and the LEL (rat [6]; [29]) was 1000 mg/kg/day. For the same compound, the LOAEL (rat [6]; [29]) was 1000 mg/kg/day, the NEL (rat [6]; [29]) was 100 mg/kg/day and the NOAEL (rat [6]; [29]) was 100 mg/kg/day. The LOAEL (mouse [7]; systemic / hematology / anemia / anemia - heinz body) was 109 mg/kg/day, the LEL (mouse [7]; [30]) was 109 mg/kg/day and the NEL (mouse [7]; [30]) was 21.7 mg/kg/day. For the same compound, the NOAEL (mouse [7]; [30]) was 21.7 mg/kg/day, the LOAEL (rat [8]; [31]) was over 54 mg/kg/day and the NOAEL (rat [8]; [31]) was at least 54 mg/kg/day. The LEL (rat [8]; [32]) was 25 mg/kg/day, the NEL (rat [8]; [32]) was 5.9 mg/kg/day and the LOAEL (rat [8]; [33]) was 54 mg/kg/day. It also gave an NEL (rat [8]; [33]) of 4.7 mg/kg/day, an NOAEL (rat [8]; [33]) of 18 mg/kg/day and an LEL (rat [8]; group: systemic, systemic / pathology microscopic / lung / focal cellular change + systemic / pathology microscopic / seminal vesicle / secretory fluid) of 18 mg/kg/day. The LOAEL (dog [9]; [20]) was 12.5 mg/kg/day, the NOAEL (dog [9]; [20]) was under 12.5 mg/kg/day and the LEL (dog [9]; [34]) was 12.5 mg/kg/day. For the same compound, the NEL (dog [9]; [34]) was under 12.5 mg/kg/day, the LEL (rat [10]; [35]) was 500 mg/kg/day and the LOAEL (rat [10]; [35]) was 500 mg/kg/day. The NEL (rat [10]; [35]) was 100 mg/kg/day, the NOAEL (rat [10]; [35]) was 100 mg/kg/day and the LEL (rat [10]; [36]) was 100 mg/kg/day. It also gave an LOAEL (rat [10]; [36]) of 100 mg/kg/day, an NEL (rat [10]; [37]) of 10 mg/kg/day and an NOAEL (rat [10]; [37]) of 10 mg/kg/day. It also gave an LOAEL (rat [11]; [38]) of 26 mg/kg/day, an NOAEL (rat [11]; [38]) of 5.2 mg/kg/day and an LEL (rat [11]; [20]) of 5.2 mg/kg/day. For the same compound, the NEL (rat [11]; systemic / hematology / methemoglobin / methemoglobin + systemic / clinical chemistry / thyroxine (t4) / thyroxine (t4), total + systemic / …) was 2.6 mg/kg/day.

With `CCOC(=O)COc1cc(-c2nn(C)c(OC(F)F)c2Cl)c(F)cc1Cl` [Pyraflufen-ethyl] the LEL (rat [12]; [39]) was 86.7 mg/kg/day, the LOAEL (rat [12]; [39]) was 86.7 mg/kg/day and the NEL (rat [12]; [40]) was 17.2 mg/kg/day. The NOAEL (rat [12]; [40]) was 17.2 mg/kg/day, the LOAEL (rat [13]; [41]) was 1490 mg/kg/day and the NEL (rat [13]; [41]) was 85.6 mg/kg/day. The NOAEL (rat [13]; [41]) was 456 mg/kg/day, the LEL (rat [13]; systemic / organ weight / brain / relative to body weight) was 456 mg/kg/day and the LEL (mouse [14]; [42]) was 98.3 mg/kg/day. The LOAEL (mouse [14]; [42]) was 98.3 mg/kg/day, the NEL (mouse [14]; [43]) was 19.6 mg/kg/day and the NOAEL (mouse [14]; [43]) was 19.6 mg/kg/day. The LEL (rat [15]; [44]) was 721 mg/kg/day, the LOAEL (rat [15]; [44]) was 721 mg/kg/day and the NEL (rat [15]; [44]) was 70.8 mg/kg/day. For the same compound, the NOAEL (rat [15]; [44]) was 70.8 mg/kg/day, the LEL (rat [15]; [45]) was 721 mg/kg/day and the LOAEL (rat [15]; [45]) was 721 mg/kg/day. For the same compound, the NEL (rat [15]; [45]) was 70.8 mg/kg/day and the NOAEL (rat [15]; [45]) was 70.8 mg/kg/day.
